“And” between values parts separate entries of the source, which are not always exact repeats. Equal entries are not always repeated.
What was measured:
U87-MG cells = assay: Vasculogenic mimicry (tube formation on Geltrex), U87-MG; assay type: cell-based, human; conditions: for reduction in branching points: 24 h, Geltrex
Method: The tube formation assay was performed in 96-well plates pre-coated with 50 µL/well of Geltrex^TM (Thermofisher, Scientific, Waltham, MA, USA), and polymerized for 30 min at 37 °C. Briefly, 3 × 10^4 U87-MG, 1.5 × 10^4 U251, and 1 × 10^4 C6 cells/100µL/well were plated onto Geltrex^TM and monitored at 37 °C for the indicated times. The specific effectors were included at time 0. The formation of vascular-like structures by Geltrex^TM-plated U87-MG and U251-MG cells was monitored for 24 h, whereas C6 cells were tested for 16 h. The evaluation of the branching point number, defined as the intersection of at least 3 tubes [24], was performed using the Inverted Microscope DMI Leica 6000 for the U87-MG and U251-MG cells and the Inverted Microscope Axiovert 25 for the C6 cells. At the indicated times, the number of “branching points” was assessed in 4/5 random fields using the ImageJ 1.52a Software.
Figure 6 Vascular mimicry formation by U87-MG and effect of uPAcyclin. (A) Representative images of U87-MG cells pre-treated or not (untreated) for 40 min at 37 °C with uPAcyclin (1 nM and 100 nM) and then plated onto Geltrex^TM in multiwell-96 (3 × 10^4/well). As a control, cells were grown in the presence of DMEM/10% FBS (No matrix) or with Geltrex^TM (Untreated, Untd). Images are taken at 24 h using the Inverted Microscope DMI Leica 6000 with 50× total magnification, scale bar: 75 µm. (B) The quantitation of branching points, defined as the intersection of at least three tubes [24], was performed at 4, 8, and 24 h either in control cells and cells pre-treated for 40 min at 37 °C with 10 pM, 1 nM, and 100 nM uPAcyclin before plating onto Geltrex^TM. (C) U87-MG cells were pre-treated with uPAcyclin or with S-uPAcyclin, at the indicated concentrations, plated onto Geltrex^TM and, 24 h later, the number of branching points was evaluated and reported in the histogram (* p-value < 0.05; ** p-value < 0.005; *** p-value < 0.001).

[1] = tested on: U87-MG cells (αV integrin); assay: FITC-uPAcyclin receptor binding/competition, U87-MG; set-up: species or system human; conditions: for FITC-uPAcyclin binding, single values: T-test sheet, single replicates of all EXPTs
Method: The U87-MG, U251-MG, and U138-MG cell lines were harvested and acid-treated, as described. Then, 2 × 10^6 cells/sample were exposed for 30 min at 4 °C to uPAcyclin or S-uPAcyclin at the indicated concentrations, or with the following antibodies: VNR147 monoclonal anti-αV integrin (Chemicon Int. Inc., Temecula, CA, USA), polyclonal anti-αV (Millipore, Burlington, MA, USA), monoclonal anti-α2 (Chemicon Int. Inc., Temecula, CA, USA), polyclonal anti-actin (Sigma-Aldrich, St. Louis, MO, USA), monoclonal anti-GAPDH (Abcam, Cambridge, UK), and purified vitronectin (VN, Corning, Glendale, AZ, USA). The cells were subsequently incubated with 50 nM FITC-uPAcyclin for 2 h at 4 °C, as described. At the end of incubation, the cells were washed and the cell surface-associated fluorescence was determined using a fluorimeter (VICTOR^TM X3-PerkinElmer, Waltham, MA, USA). All binding assays were performed three times, with duplicate samples, and analyzed as described in Section 2.11.
Figure 2 αV expression of U87-MG, U251-MG, and U138-MG GBM cells and specific binding of FITC-uPAcyclin. (A) U87-MG, U251-MG, U138-MG, HEK-293, and HEK-293/αV total cell lysates were subjected to Western blotting and probed using polyclonal anti-αV or polyclonal anti-actin as loading control. (B) A total of 2 × 10^6 U87-MG, U251-MG, U138-MG, HEK-293/αV, or HEK-293 cells were pre-incubated for 30 min at 4 °C with 500 nM uPAcyclin and further exposed to 50 nM FITC-uPAcyclin for 2 h at 4 °C. At the end of the incubation, the unbound material was washed and cell-associated FITC-uPAcyclin was quantitated by a fluorimeter. The net value of cell-surface-associated fluorescence, corresponding to the specific binding, is shown. (C) A total of 2 × 10^6 U87-MG, U251-MG, and U138-MG cells were pre-incubated for 30 min at 4 °C with increasing concentrations of unlabeled uPAcyclin and then assayed for binding of FITC-uPAcyclin, for 2 h at 4 °C. Cell-surface-associated fluorescence, as percentage of the samples […], is shown. (D) U87-MG cells were pre-incubated with uPAcyclin (1 pM, 100 nM), scrambled uPAcyclin (S-uPAcyclin, 1 pM and 100 nM)), vitronectin (200 µM), anti-αv polyclonal (anti-αV Pclonal, 5 µg/mL) or monoclonal (anti-αV MoAb, 5 µg/mL) or anti-α2 monoclonal (anti-α2 MoAb, 1 µg/mL), polyclonal anti-actin, and monoclonal anti GAPDH. Then, cells were treated as in B (* p-value < 0.05; *** p-value < 0.001).

Ac-K^1P[ESPPEELK^10]-NH2 (sidechain bridge or staple) [uPAcyclin]
branching point number, in words (U87-MG cells; 10 pM, 10 nM (legend: 1 nM), 100 nM, U87-MG, 4, 8, 24 h): concentration-dependent reduction in the branching point number
reduction in branching points (U87-MG cells; 1 nM, U87-MG): approximately 60%
VM formation by time-lapse videomicroscopy, in words (U87-MG cells; 100 nM, U87-MG, 14 h, serum-free): inhibited and delayed
reduction in branching points (U87-MG cells; 100 nM, U87-MG): approximately 60%
FITC-uPAcyclin binding, single values ([1]; competitor 1 pM): 70 and 77 and 74 and 75
FITC-uPAcyclin binding, single values ([1]; competitor 100 nM): 38 and 42 and 49 and 44 and 54
Kdapp ([1]; unlabeled uPAcyclin vs FITC-uPAcyclin, U87-MG, 4 °C): low nanomolar range

Ac-PS[EELKPEPK]-NH2 (sidechain bridge or staple) [S-uPAcyclin, scrambled control peptide]
reduction in branching points (U87-MG cells; scrambled control, U87-MG): approximately 20%
competition with FITC-uPAcyclin binding, in words ([1]; U87-MG, S-uPAcyclin 1 pM and 100 nM, vitronectin 200 µM, anti-αV 5 µg/mL, anti-α2 1 µg/mL): retains very little binding ability
FITC-uPAcyclin binding, single values ([1]; competitor 1 pM, listed as Scrambled uPAcyclin): 85 and 88 and 80 and 75
FITC-uPAcyclin binding, single values ([1]; competitor 100 nM, listed as Scrambled uPAcyclin): 74 and 80 and 82 and 75

Reference: paper PMC10571957, “αV-Integrin-Dependent Inhibition of Glioblastoma Cell Migration, Invasion and Vasculogenic Mimicry by the uPAcyclin Decapeptide” (Cancers, 2023)
